Here are results for 11 compounds from US20090239880A1, “COMBINATIONS OF MONOAMINE REUPTAKE INHIBITORS AND POTASSIUM CHANNEL ACTIVATORS” (priority 2006, published 2009).

Molecules are shown by their SMILES. Where a name gives a salt, the structure may show the parent alone.

One data set deals with SK3 channels (Homo sapiens, UniProt Q9UGI6). The data set is described as follows: inhibition of SK3 channels in patchclamp electrophysiology (selectivity over monoamine reuptake in vitro). Conditions: patchclamp electrophysiology vs [3H]DA, [3H]5-HT and [3H]NA reuptake in vitro. It is filed as cell-based.
`N=c1n(Cc2ccc(F)c(F)c2)c2ccccc2n1Cc1ccc(F)c(F)c1` [test compound, 1,3-Bis-(3,4-difluoro-benzyl)-1,3-dihydro-benzoimidazol-2-ylideneamine]: the “selectivity for inhibition of SK3 channels over inhibiton of [3H]DA, [3H]5-HT and [3H]NA reuptake” value is listed as “more than 100 fold”.

Another data set has as its system NMRI mice. Description: nialamide induced 5-HT syndrome paradigm. It is filed as in vivo. Conditions: nialamide 50 mg/kg s.c. at -120 min, test compound 0.3-3 mg/kg i.p. combined with sub-threshold citalopram 1 mg/kg p.o. at 0 min. The protocol:
Method: Mice were administered nialamide (50 mg/kg, s.c., −120 min) followed by the test compound (0.3-3 mg/kg, i.p.) and citalopram (1 mg/kg, p.o) at time-point 0 min. The presence of head twitches, hindlimb abduction, head weaving, and piano playing behaviours were then scored by a trained observer using a recognised rating scale: maximum score/mouse=4, minimum score/mouse=0.
Consider `N=c1n(Cc2ccc(F)c(F)c2)c2ccccc2n1Cc1ccc(F)c(F)c1` [test compound, 1,3-Bis-(3,4-difluoro-benzyl)-1,3-dihydro-benzoimidazol-2-ylideneamine], for which the “effect on ability of citalopram to induce symptoms analagous to the serotonin syndrome (5-HT syndrome score)” value is “enhanced the ability of the latter to induce symptoms analagous to the serotonin syndrome”.

For the next data set, the system named is NMRI mice. Description: reversal of tetrabenazine-induced ptosis. It is filed as in vivo. Particulars: test compound 0.3-3 mg/kg i.p. combined with sub-threshold reboxetine 0.1 mg/kg p.o. at -60 min, tetrabenazine 40 mg/kg i.p. at -30 min. The protocol: Method: Mice were administered the test compound (0.3-3 mg/kg, i.p.) and reboxetine (0.1 mg/kg, p.o.) at timepoint −60 min, followed by tetrabenazine (40 mg/kg, i.p., −30 min). The presence of ptosis was then scored by a trained observer using a recognised rating scale: maximum score/mouse=4, minimum score/mouse=0.
For the compound `N=c1n(Cc2ccc(F)c(F)c2)c2ccccc2n1Cc1ccc(F)c(F)c1` [test compound, 1,3-Bis-(3,4-difluoro-benzyl)-1,3-dihydro-benzoimidazol-2-ylideneamine], the “effect on ability of reboxetine to reverse tetrabenazine-induced ptosis (ptosis score)” value is recorded as “enhanced the ability of the latter to reverse tetrabenazine-incuced ptosis”.

Test system in the next data set: not given
Assay: not given
Settings: not given
With `Fc1ccc(C(c2ccc(F)cc2)N2CCN(c3nc4ccccc4[nH]3)CC2)cc1` (as salt: hydrochloride) [Example 9, 2-{4-[Bis-(4-fluorophenyl)methyl]piperazin-1-yl}-1H-benzoimidazole], the melting point was > 240 °C (dec.).
The same measure, in the same setting: the result for `Clc1ccc(OC2CCN(c3nc4ccccc4[nH]3)CC2)cc1Cl` (as salt: hydrochloride) [Example 10, 2-[4-(3,4-Dichlorophenoxy)piperidin-1-yl]-1H-benzoimidazole] reads 297 to 298 °C; that for `Clc1ccc(CC2CCN(c3nc4ccccc4[nH]3)CC2)cc1Cl` (as salt: salt) [Example 1, 2-[4-(3,4-Dichlorobenzyl)piperidin-1-yl]-1H-benzoimidazole], 268 to 270 °C.
Same read-out and setting: the same measure for `c1ccc(CC2CCN(c3nc4ccccc4[nH]3)CC2)cc1` [Example 2, 2-(4-Benzylpiperidin-1-yl)-1H-benzoimidazole]: 193 to 194 °C; for `OC(c1ccccc1)(c1ccccc1)C1CCN(c2nc3ccccc3[nH]2)CC1` [Example 3, [1(1H-Benzoimidazol-2-yl)-piperidin-4-yl]diphenylmethanol]: 237 to 239 °C.
Still for that read-out and setting: the same measure for `FC(F)(F)c1cc(Cn2c(N3CCC(Cc4ccccc4)CC3)nc3ccccc32)ccc1Cl` [Example 4, 2-(4-Benzylpiperidin-1-yl)-1-[4-chloro-3-(trifluoromethyl)benzyl]-1H-benzoimidazole]: 124 to 125.5 °C.
The compound `Fc1ccc(Cn2c(N3CCC(Cc4ccccc4)CC3)nc3ccccc32)cc1F` [Example 5, 2-(4-Benzylpiperidin-1-yl)-1-(3,4-difluorobenzyl)-1H-benzoimidazole] gave a melting point of 155 to 155.5 °C.
The same measure, in the same setting: the result for `c1ccc(C(c2ccccc2)N2CCN(c3nc4ccccc4[nH]3)CC2)cc1` [Example 6, 2-(4-Benzhydrylpiperazin-1-yl)-1H-benzoimidazole] reads > 230 °C (dec.); that for `c1ccc(C(=C2CCN(c3nc4ccccc4[nH]3)CC2)c2ccccc2)cc1` [Example 12, 2-(4-Benzhydrylidene-piperidin-1-yl)-1H-benzoimidazole], 229 to 230 °C.
Regarding `c1ccc(C(c2ccccc2)C2CCN(c3nc4ccccc4[nH]3)CC2)cc1` [Example 13, 2-(4-Benzhydryl-piperidin-1-yl)-1H-benzoimidazole], the melting point lay within 256 to 258 °C.
